Read-outs that look alike come from different tables or passages of the source. Starred links: 1 amine or outer side, 2 acyl side, 3 side chain; linkers in the order of their positions; H or OH if unused. Non-standard residues stand in square brackets, D forms with d. Residues, ends and D or L forms follow the SMILES beside them. *: point of attachment. DOTA = O=C(O)CN1CCN(CC(=O)O)CCN(CC(=O)*)CCN(CC(=O)O)CC1; d(γGlu) = O=C(O)[C@@H](CCC(=O)[*:2])N[*:1]
Assays:
[1] = format: physicochemical
Protocol: The compound hydrophobicity was determined using the octanol–water partition coefficient “shake flask method” described by Lambidis et al.. In brief, 100 µL of purified [^68Ga]Ga-DOTA-AeK was added to 400 µL of ultrapure water. The aqueous solution was added to an equal volume of 1-octanol (Sigma-Aldrich, Darmstadt, Germany), and the mixture was mechanically shaken for approximately 3 min at room temperature. The sample was centrifuged at 16,211 g for 5 min using a Digicen 21 R centrifuge (Orto Alresa, Madrid, Spain). The aqueous and organic phases of the sample were separated, and samples from each phase were analyzed using a dose calibrator. The logarithmic partition coefficient, Log P, was calculated using the following formula:Log P = Log [(counts in octanol/counts in water)](1)

[2] = format: in vitro ADME
Protocol: The plasma protein binding filter assay described by Müller et al. was adopted. Before the experiment, Amicon® Ultra-0.5 centrifugal 10 kDa MWCO filter units (Merck, Darmstadt, Germany) were pre-washed with 200 µL of phosphate-buffered saline (PBS) for 20 min at 18,611 g using the Microfuge 16 centrifuge (Beckman Coulter Life Sciences, Brea, CA, USA). Subsequently, 800 µL of plasma was spiked with 200 µL of purified [^68Ga]Ga-DOTA-AeK, vortexed for 3 s, and incubated for 120 min at 37 °C. For radioanalysis, a 100 µL plasma sample was taken at different time intervals (30, 60, and 120 min), diluted (1:1) with PBS, aliquoted into filter units, and centrifuged at 14,800 rpm for 20 min. A similar procedure was carried out in PBS (140 mM NaCl, 10 mM phosphate buffer, and 3 mM KCl, pH 7.4) as a control. After centrifugation, each filter unit was washed by adding 100 µL of PBS (140 mM NaCl, 10 mM phosphate buffer, and 3 mM KCl, at pH 7.4, and centrifuged as described above. The counts of the filtrate fraction (representing unbound compound) and on the filter (protein-bound compound) were measured using a Capintec Captus 4000E well counter (Florham Park, NJ, USA). The percentage of the protein-bound radiotracer was calculated using the following equation:% Protein bound = [counts in filter ÷ total counts (filtrate fraction+ filter)] × 100(2)

E. coli [3] = experiment: Bacterial cell uptake of radiotracer in live and heat-killed cultures; format: cell-based, Escherichia coli; settings: 37 °C
Protocol: (§1) Overnight bacterial cell cultures of E. coli or S. aureus were grown in Tryptic Soy Broth (TSB) medium at 37 °C. The […] McFarland standard was prepared using DEN-18 McFarland Densitometer (Biosan, Riga, Latvia). For control studies, the same amount of bacterial culture was heat-killed via 30 min incubation at 90 °C. The culture viability was confirmed using agar plating with overnight incubation. All tests were initiated by adding 4.1 ± 1.23 MBq of [^68Ga]Ga-DOTA-AeK product solution (4.86 ± 1.45 GBq/µmol) to 1.0 mL of the bacterial suspension (1.8 × 10^8 cells/mL), and mixtures were maintained while shaking at 37 °C. At specific time intervals (10, 60, and 120 min), samples of the suspension were centrifuged at 16,211 g for 10 min (Digicen 21R, United Scientific, Goodwood, South Africa), and the supernatant was transferred into a plastic tube. The pellet was washed with 3 mL of PBS (140 mM sodium chloride, 10 mM phosphate buffer, and 3 mM potassium chloride, pH 7.4) and centrifuged at 16,211 g for 10 min. […] The radioactivity in the supernatant and pellet fraction were measured using an automatic gamma counter (Hidex AMG, LabLogic, Turku, Finland). The percentile of [^68Ga]Ga-DOTA-AeK cell uptake was calculated as follows:Uptake (%) = [counts in cell pellet ÷ total counts (cell pellet + supernatants)] × 100(3)

S. aureus [4] = experiment: as above; format: cell-based, Staphylococcus aureus; settings: 37 °C
Protocol: as §1

[5] = format: in vivo, BALB/c mice; settings: mouse, in vivo, iv, Ex vivo organ biodistribution
Protocol: (§2) Six-to-eight-week-old mixed-gender BALB/c mice (20.0 ± 2.1 g) were utilized. Animals were pre-grouped (two mice/cage) into individually ventilated cages (IVC, Tecniplast, Buguggiate, Italy) and kept under standard housing conditions (22 ± 2 °C, 55 ± 10% humidity, 15 ± 5 Pa, and 12 h light/dark cycles) with food and water being provided ad libitum. Each experimental group consisted of 5 animals.
(§3) A thigh muscle mouse model of infection and inflammation was developed for imaging purposes by adopting procedures from a previous study with some modifications. In brief, animals were inoculated intramuscularly (right hind leg) with 1.5 × 10^7 colony forming units (CFU)/mL of S. aureus or E. coli suspended in 100 µL of culture media. To induce sterile inflammation, the same mice received 100 µL of a turpentine oil solution intramuscularly into the left hind leg. Infection was allowed to develop for 3–5 days, which is typical for a model of chronic infections, and a health check, including monitoring of the infection and inflammation sites, was conducted. At 3 and 5 days after the inoculations, all animals underwent whole-body [^68Ga]Ga-DOTA-AeK microPET/CT imaging, and after euthanasia, a complete ex vivo organ tissue biodistribution radioactive assay was performed.
(§4) A total volume of 100 µL of [^68Ga]Ga-DOTA-AeK (7.4 ± 2.0 MBq, 5% EtOH/PBS, pH 7.0) was administered as an intravenous bolus via the tail vein. At the same time, the animals were kept anesthetized, (4% isoflurane in oxygen for induction and 1.5–2.5% for maintenance). Non-invasive, whole-body microPET/CT imaging was performed using a Mediso nanoScan® PET/CT scanner (Budapest, Hungary). A previously described, image acquisition was performed. The PET/CT imaging procedure consisted of static whole-body scans per animal commencing at 60 min post-injection. The imaging protocol included the X-ray topogram (30 s) to ascertain the correct animal placement followed by CT image acquisition (4–5 min) and 20 min long PET image acquisition. Image reconstruction and analysis were performed as previously described.
(§5) After PET/CT imaging, the mice were euthanized via cervical dislocation while still under anesthesia. The different organs (spleen, pancreas, stomach, intestine, kidneys, liver, heart, lung, muscle, and femur) were collected into pre-weighed tubes. The radioactivity of each sample was determined using an automatic gamma counter (Hidex AMG, Turku, Finland). Results were expressed as a percentage of injected dose per gram organ (%ID/g). Subsequently, both muscles on the left and right thighs were fixed in 4% paraformaldehyde and submitted to the University of Pretoria, Department of Paraclinical Science, for hematoxylin and eosin (H&E) and Gram staining. Infection and inflammation tissue analysis was performed by a qualified pathologist.

E. coli [6] = format: in vivo, BALB/c mice
Protocol: as §2, §3, §4, §5

[7] = format: in vivo, BALB/c mice; settings: mouse, in vivo, iv, Ex vivo organ biodistribution; remark: listed apart in the source
Protocol: as §2, §3, §4, §5

S. aureus [8] = format: in vivo, BALB/c mice
Protocol: as §2, §3, §4, §5

C[C@H](N)C(=O)N[C@H](CCC(=O)N[C@@H](CCCCNC(=O)CN1CCN(CC(=O)O)CCN(CC(=O)O)CCN(CC(=O)O)CC1)C(=O)O)C(=O)O [[^68Ga]Ga-DOTA-AeK, metal not drawn] (H-Ala-[d(γGlu)]-Lys(DOTA)-OH)
logP [1]: -1.08 | tracer recovered within the aqueous phase ([1]; octanol/water partition, n = 3): 92.3 ± 0.04% | protein-bound fraction [2]: approximately 10.18 ± 6.9% | cellular uptake, live versus heat-killed bacteria (E. coli [3]; any time point up to 120 min): No significant increase in radioactivity above the heat-killed bacterial cells | radiotracer detected in the medium (E. coli [3]; up to 120 min): ~ 98% | cellular uptake, live versus heat-killed bacteria (S. aureus [4]; any time point up to 120 min): No significant increase in radioactivity above the heat-killed bacterial cells | radiotracer detected in the medium (S. aureus [4]; up to 120 min): ~ 98% | tissue uptake at 1 h ([5]; Brain): 0.1 %ID/g | tissue uptake at 1 h ([5]; Heart): 0.8 ± 0.4 %ID/g | tissue uptake at 1 h ([5]; Inflammation): 0.9 %ID/g | tissue uptake at 1 h ([5]; Liver): 1.1 ± 0.2 %ID/g | tissue uptake at 1 h ([5]; Lungs): 1 ± 0.1 %ID/g | tissue uptake at 1 h ([5]; Muscle): 0.7 ± 0.4 %ID/g | tissue uptake at 1 h ([5]; Pancreas): 0.6 ± 0.3 %ID/g | tissue uptake at 1 h ([5]; Thyroid): 1 ± 0.7 %ID/g | uptake in the infectious foci (PET/CT and ex vivo tissue counting) (E. coli [6]; E. coli, Day 3 and Day 5 post-inoculation, 60 min after iv injection): no significant uptake in the infectious foci | clearance route (E. coli [6]; mouse, in vivo): rapid clearance mainly via renal excretion | Ex vivo organ biodistribution, Brain (E. coli [6]; mouse, in vivo, iv, 1 h): 0.2 ± 0.2 %ID/g | Ex vivo organ biodistribution, Heart (E. coli [6]; mouse, in vivo, iv, 1 h): 1.6 ± 1.3 %ID/g | Ex vivo organ biodistribution, Kidneys (E. coli [6]; mouse, in vivo, iv, 1 h): 2.9 ± 0.7 %ID/g | Ex vivo organ biodistribution, Liver (E. coli [6]; mouse, in vivo, iv, 1 h): 1.2 ± 0.4 %ID/g | Ex vivo organ biodistribution, Lungs (E. coli [6]; mouse, in vivo, iv, 1 h): 2.0 ± 0.4 %ID/g | tissue uptake at 1 h ([7]; Brain): 0.1 %ID/g | tissue uptake at 1 h ([7]; Intestines): 1.2 ± 1.9 %ID/g | tissue uptake at 1 h ([7]; Stomach): 0.7 ± 0.5 %ID/g | uptake in the infectious foci (PET/CT and ex vivo tissue counting) (S. aureus [8]; S. aureus, Day 3 and Day 5 post-inoculation, 60 min after iv injection): no significant uptake in the infectious foci | clearance route (S. aureus [8]; mouse, in vivo): rapid clearance mainly via renal excretion | Ex vivo organ biodistribution, Adipose (S. aureus [8]; mouse, in vivo, iv, 1 h): 1.9 ± 0.3 %ID/g | Ex vivo organ biodistribution, Brain (S. aureus [8]; mouse, in vivo, iv, 1 h): 0.2 ± 0.0 %ID/g | Ex vivo organ biodistribution, Femur (S. aureus [8]; mouse, in vivo, iv, 1 h): 2.0 ± 0.2 %ID/g | Ex vivo organ biodistribution, Heart (S. aureus [8]; mouse, in vivo, iv, 1 h): 3.7 ± 0.5 %ID/g | Ex vivo organ biodistribution, Infection (S. aureus [8]; mouse, in vivo, iv, 1 h): 0.9 ± 0.3 %ID/g | Ex vivo organ biodistribution, Intestines (S. aureus [8]; mouse, in vivo, iv, 1 h): 1.8 ± 0.8 %ID/g | Ex vivo organ biodistribution, Kidneys (S. aureus [8]; mouse, in vivo, iv, 1 h): 7.0 ± 0.1 %ID/g | Ex vivo organ biodistribution, Pancreas (S. aureus [8]; mouse, in vivo, iv, 1 h): 2.3 ± 0.2 %ID/g | Ex vivo organ biodistribution, Spleen (S. aureus [8]; mouse, in vivo, iv, 1 h): 1.6 ± 0.6 %ID/g | Ex vivo organ biodistribution, Stomach (S. aureus [8]; mouse, in vivo, iv, 1 h): 1.1 ± 0.4 %ID/g

Reference: publication PMC11434960, “Evaluation of [^68Ga]Ga-DOTA-AeK as a Potential Imaging Tool for PET Imaging of Cell Wall Synthesis in Bacterial Infections” (Pharmaceuticals, 2024)
